From US20260193271A1, “PAN-KRAS INHIBITOR COMPOUND” (ADLAI NORTYE BIOPHARMA CO., LTD., priority 2022, published 2026)

Assays:
[1] = test system: AsPC-1 (G12D); assay: In vitro cell proliferation inhibition test (CellTiter-Glo), AsPC-1; format: cell-based; details: KRAS (p.G12D), 72 h co-incubation
Method in brief: (§1)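 IC50 was derived by four-parameter fitting of normalized CellTiter-Glo signals. These were measured after 72 h co-incubation with compound at 10 concentrations, 3-fold serial, final maximum 10 μM. Plating was 1000-5000 cells/well, adjusted to growth rate, with overnight attachment at 37 °C, 5% CO2.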

[2] = test system: SW480 (G12V); assay: In vitro cell proliferation inhibition test (CellTiter-Glo), SW480; format: cell-based; details: SW480 colon cell line, KRAS (p.G12V), 72 h co-incubation
Method in brief: as §1

[3] = Homo sapiens, ASPC1, AsPC-1 pancreas cell line

| SMILES | IC50 [1, 3] [nM] | IC50 ([2]; Homo sapiens) [nM] | IC50 ([1]; AsPC-1 pancreas cell line) [nM] | IC50 [2] [nM] |
| --- | --- | --- | --- | --- |
| CCn1c(-c2cc(-c3cc([C@H]4COCCN4C)on3)cnc2[C@H](C)OC)c2c3cc(ccc31)-c1csc(n1)C[C@H](NC(=O)[C@H]1[C@H](C)[C@@H]1C)C(=O)N1CCC[C@H](N1)C(=O)OCC(C)(C)C2 (atropisomer, axis not shown) [Compound 33, (1r,2R,3S)-N-((6^3S,4S,Z)-1^1-ethyl-1^2-(2-((S)-1-methoxyethyl)-5-(5-((R)-4-methylmorpholin-3-yl)isoxazol-3-yl)pyridin-3-yl)-10,10-dimethyl-5,7-dioxo-6^1,6^2,6^3,6^4,6^5,6^6-hexahydro-1^1H-8-oxa-2(4,2)-thiazola-1(5,3)-indola-6(1,3)-pyridazinacycloundecaphane-4-yl)-2,3-dimethylcyclopropane-1-carboxamide] | 0.86 | 2.1 |  |  |
| CCn1c(-c2cc(-c3cnn(CC4CCCN4C)c3)cnc2C(C)OC)c2c3cc(ccc31)-c1csc(n1)CC(NC(=O)C1C(C)C1C)C(=O)N1CCCC(N1)C(=O)OCC(C)(C)C2 [Compound 62, (1r,2R,3S)-N-((6^3S,4S,Z)-1^1-ethyl-1^2-(2-((S)-1-methoxyethyl)-5-(1-(((R)-1-methylpyrrolidin-2-yl)methyl)-1H-pyrazol-4-yl)pyridin-3-yl)-10,10-dimethyl-5,7-dioxo-6^1,6^2,6^3,6^4,6^5,6^6-hexahydro-1^1H-8-oxa-2(4,2)-thiazola-1(5,3)-indola-6(1,3)-pyridazinacycloundecaphane-4-yl)-2,3-dimethylcyclopropane-1-carboxamide] |  |  | 0.54 | 3.9 |
| CCn1c(-c2cc(-c3cc(CNC)on3)cnc2C(C)OC)c2c3cc(ccc31)-c1csc(n1)CC(NC(=O)C1CC1C)C(=O)N1CCCC(N1)C(=O)OCC(C)(C)C2 [Compound 23′, (1S,2S)-N-((6^3S,4S,Z)-1^1-ethyl-1^2-(2-((S)-1-methoxyethyl)-5-(5-((methylamino)methyl)isoxazol-3-yl)pyridin-3-yl)-10,10-dimethyl-5,7-dioxo-6^1,6^2,6^3,6^4,6^5,6^6-hexahydro-1^1H-8-oxa-2(4,2)-thiazola-1(5,3)-indola-6(1,3)-pyridazinacycloundecaphane-4-yl)-2-methylcyclopropane-1-carboxamide] |  |  | 2370 | 1340 |
| CCn1c(-c2cc(-c3cc(CN4CCOCC4)on3)cnc2C(C)OC)c2c3cc(ccc31)-c1csc(n1)CC(NC(=O)C1CC1C)C(=O)N1CCCC(N1)C(=O)OCC(C)(C)C2 [Compound 22′, (1S,2S)-N-((6^3S,4S,Z)-1^1-ethyl-1^2-(2-((S)-1-methoxyethyl)-5-(5-(morpholinomethyl)isoxazol-3-yl)pyridin-3-yl)-10,10-dimethyl-5,7-dioxo-6^1,6^2,6^3,6^4,6^5,6^6-hexahydro-1^1H-8-oxa-2(4,2)-thiazola-1(5,3)-indola-6(1,3)-pyridazinacycloundecaphane-4-yl)-2-methylcyclopropane-1-carboxamide] |  |  | > 10000 | 161 |
| CCn1c(-c2cc(-c3ccc(CN4CCOCC4)cn3)cnc2[C@H](C)OC)c2c3cc(ccc31)-c1csc(n1)C[C@H](NC(=O)[C@H]1C[C@@H]1C)C(=O)N1CCC[C@H](N1)C(=O)OCC(C)(C)C2 (atropisomer, axis not shown) [Compound 12, (1S,2S)-N-((6^3S,4S,Z)-1^1-ethyl-1^2-(6′-((S)-1-methoxyethyl)-5-(morpholinomethyl)-[2,3′-bipyridin]-5′-yl)-10,10-dimethyl-5,7-dioxo-6^1,6^2,6^3,6^4,6^5,6^6-hexahydro-1^1H-8-oxa-2(4,2)-thiazola-1(5,3)-indola-6(1,3)-pyridazinacycloundecaphane-4-yl)-2-methylcyclopropane-1-carboxamide] | 16 | 6.6 |  |  |
| CCn1c(-c2cc(-c3ccc4c(c3)CN(C)CC4)cnc2[C@H](C)OC)c2c3cc(ccc31)-c1csc(n1)C[C@H](NC(=O)[C@H]1C[C@@H]1C)C(=O)N1CCC[C@H](N1)C(=O)OCC(C)(C)C2 (atropisomer, axis not shown) [Compound 10, (1S,2S)-N-((6^3S,4S,Z)-1^1-ethyl-1^2-(2-((S)-1-methoxyethyl)-5-(2-methyl-1,2,3,4-tetrahydroisoquinolin-7-yl)pyridin-3-yl)-10,10-dimethyl-5,7-dioxo-6^1,6^2,6^3,6^4,6^5,6^6-hexahydro-1^1H-8-oxa-2(4,2)-thiazola-1(5,3)-indola-6(1,3)-pyridazinacycloundecaphane-4-yl)-2-methylcyclopropane-1-carboxamide] | 18 | 0.5 |  |  |

Continued, values first:

| IC50 [1, 3] [nM] | IC50 ([2]; Homo sapiens) [nM] | IC50 ([1]; AsPC-1 pancreas cell line) [nM] | IC50 [2] [nM] | SMILES |
| --- | --- | --- | --- | --- |
| 48 | 71 |  |  | CCn1c(-c2cc(-c3cnn(C4CCN(C)CC4)c3)cnc2[C@H](C)OC)c2c3cc(ccc31)-c1csc(n1)C[C@H](NC(=O)[C@H]1C[C@@H]1C)C(=O)N1CCC[C@H](N1)C(=O)OCC(C)(C)C2 (atropisomer, axis not shown) [Compound 63, (1S,2S)-N-((6^3S,4S,Z)-1^1-ethyl-1^2-(2-((S)-1-methoxyethyl)-5-(1-(1-methylpiperidin-4-yl)-1H-pyrazol-4-yl)pyridin-3-yl)-10,10-dimethyl-5,7-dioxo-6^1,6^2,6^3,6^4,6^5,6^6-hexahydro-1^1H-8-oxa-2(4,2)-thiazola-1(5,3)-indola-6(1,3)-pyridazinacycloundecaphane-4-yl)-2-methylcyclopropane-1-carboxamide] |
| 4 | 2 |  |  | CCn1c(-c2cc(-c3cnc(CN4CCOCC4)cn3)cnc2[C@H](C)OC)c2c3cc(ccc31)-c1csc(n1)C[C@H](NC(=O)[C@H]1C[C@@H]1C)C(=O)N1CCC[C@H](N1)C(=O)OCC(C)(C)C2 (atropisomer, axis not shown) [Compound 35, (1S,2S)-N-((6^3S,4S,Z)-1^1-ethyl-1^2-(2-((S)-1-methoxyethyl)-5-(5-(morpholinomethyl)pyrazin-2-yl)pyridin-3-yl)-10,10-dimethyl-5,7-dioxo-6^1,6^2,6^3,6^4,6^5,6^6-hexahydro-1^1H-8-oxa-2(4,2)-thiazola-1(5,3)-indola-6(1,3)-pyridazinacycloundecaphane-4-yl)-2-methylcyclopropane-1-carboxamide] |
| 4.3 | 1.7 |  |  | CCn1c(-c2cc(-c3cnc(CN4CCN(C)CC4)nc3)cnc2[C@H](C)OC)c2c3cc(ccc31)-c1csc(n1)C[C@H](NC(=O)[C@H]1C[C@@H]1C)C(=O)N1CCC[C@H](N1)C(=O)OCC(C)(C)C2 (atropisomer, axis not shown) [Compound 53, (1S,2S)-N-((6^3S,4S,Z)-1^1-ethyl-1^2-(2-((S)-1-methoxyethyl)-5-(2-((4-methylpiperazin-1-yl)methyl)pyrimidin-5-yl)pyridin-3-yl)-10,10-dimethyl-5,7-dioxo-6^1,6^2,6^3,6^4,6^5,6^6-hexahydro-1^1H-8-oxa-2(4,2)-thiazola-1(5,3)-indola-6(1,3)-pyridazinacycloundecaphane-4-yl)-2-methylcyclopropane-1-carboxamide] |
| 2.2 | 5.7 |  |  | CCn1c(-c2cc(-c3cnc(N4CCN(C)CC4)nc3)cnc2[C@H](C)OC)c2c3cc(ccc31)-c1csc(n1)C[C@H](NC(=O)[C@H]1C[C@@H]1C)C(=O)N1CCC[C@H](N1)C(=O)OCC(C)(C)C2 (atropisomer, axis not shown) [Compound 54, (1S,2S)-N-((6^3S,4S,Z)-1^1-ethyl-1^2-(2-((S)-1-methoxyethyl)-5-(2-(4-methylpiperazin-1-yl)pyrimidin-5-yl)pyridin-3-yl)-10,10-dimethyl-5,7-dioxo-6^1,6^2,6^3,6^4,6^5,6^6-hexahydro-1^1H-8-oxa-2(4,2)-thiazola-1(5,3)-indola-6(1,3)-pyridazinacycloundecaphane-4-yl)-2-methylcyclopropane-1-carboxamide] |
